Assay results: patent US20180319753A1, “MICROBIOCIDAL OXADIAZOLE DERIVATIVES” (SYNGENTA PARTICIPATIONS AG, priority 2015, published 2018)

How the values were obtained:
[1] = system: Glomerella lagenarium (Colletotrichum lagenarium); test: Glomerella lagenarium (Colletotrichum lagenarium) liquid culture / cucumber / preventative (anthracnose); assay type: cell-based; settings: Colletotrichum orbiculare; 20 ppm in the applied formulation; liquid culture in PDB, 24° C.; 3 to 4 days after application; read-out: disease control compared to untreated control (inhibition of growth measured photometrically)
Method in brief: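 Test compound in DMSO is placed in a microtiter plate, then potato dextrose broth containing conidia from cryogenic storage is added. Incubation runs at 24° C., and growth inhibition is read photometrically after 3 to 4 days.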

[2] = system: Puccinia recondita f. Sp. Tritici; test: Puccinia recondita f. sp. tritici / wheat / leaf disc preventative (brown rust); assay type: in vivo; settings: foliar, 200 ppm in the applied formulation, wheat leaf segments cv. Kanzler, inoculated 1 day after application, assessed 7 to 9 days after application, read-out: disease control compared to untreated control leaf disks
Procedure: Leaf disks or leaf segments of various plant species are cut from plants grown in a greenhouse. The cut leaf disks or segments are placed in multiwell plates (24-well format) onto water agar. The leaf disks are sprayed with a test solution before (preventative) or after (curative) inoculation. Compounds to be tested are prepared as DMSO solutions (max. 10 mg/ml) which are diluted to the appropriate concentration with 0.025% Tween20 just before spraying. The inoculated leaf disks or segments are incubated under defined conditions (temperature, relative humidity, light, etc.) according to the respective test system. A single evaluation of disease level is carried out 3 to 14 days after inoculation, depending on the pathosystem. Percent disease control relative to the untreated check leaf disks or segments is then calculated. Wheat leaf segments cv. Kanzler were placed on agar in multiwell plates (24-well format) and sprayed with the formulated test compound diluted in water. The leaf disks were inoculated with a spore suspension of the fungus 1 day after application. The inoculated leaf segments were incubated at 19° C. and 75% relative humidity (rh) under a light regime of 12 hours light/12 hours darkness in a climate cabinet and the activity of a compound was assessed as percent disease control compared to untreated when an appropriate level of disease damage appears in untreated check leaf segments (7 to 9 days after application). The following compounds at 200 ppm in the applied formulation give at least 80% disease control in this test when compared to untreated control leaf disks under the same conditions, which show extensive disease development.

[3] = system: Phakopsora pachyrhizi; test: Phakopsora pachyrhizi / soybean / leaf disc preventative (Asian soybean rust); assay type: in vivo; settings: foliar, 200 ppm in the applied formulation, soybean leaf disks, inoculated one day after application, assessed 12 to 14 days after application, read-out: disease control compared to untreated control leaf disks
Method in brief: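 Read-out is percent disease control relative to untreated check discs, assessed once untreated discs show adequate disease, 12 to 14 days after application. Compounds, tested at 200 ppm in the applied formulation, are sprayed onto soybean leaf discs one day before inoculation with a spore suspension.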

[4] = system: Puccinia recondita f. Sp. Tritici; test: Puccinia recondita f. sp. tritici / wheat / leaf disc curative (brown rust); assay type: in vivo; settings: foliar, 200 ppm in the applied formulation, wheat leaf segments cv. Kanzler, applied 1 day after inoculation, assessed 6 to 8 days after application, read-out: disease control compared to untreated control leaf disks
Procedure: Leaf disks or leaf segments of various plant species are cut from plants grown in a greenhouse. The cut leaf disks or segments are placed in multiwell plates (24-well format) onto water agar. The leaf disks are sprayed with a test solution before (preventative) or after (curative) inoculation. Compounds to be tested are prepared as DMSO solutions (max. 10 mg/ml) which are diluted to the appropriate concentration with 0.025% Tween20 just before spraying. The inoculated leaf disks or segments are incubated under defined conditions (temperature, relative humidity, light, etc.) according to the respective test system. A single evaluation of disease level is carried out 3 to 14 days after inoculation, depending on the pathosystem. Percent disease control relative to the untreated check leaf disks or segments is then calculated.
Wheat leaf segments cv. Kanzler are placed on agar in multiwell plates (24-well format). The leaf segments are then inoculated with a spore suspension of the fungus. Plates were stored in darkness at 19° C. and 75% relative humidity. The formulated test compound diluted in water was applied 1 day after inoculation. The leaf segments were incubated at 19° C. and 75% relative humidity under a light regime of 12 hours light/12 hours darkness in a climate cabinet and the activity of a compound was assessed as percent disease control compared to untreated when an appropriate level of disease damage appears in untreated check leaf segments (6 to 8 days after application).
The following compounds at 200 ppm in the applied formulation give at least 80% disease control in this test when compared to untreated control leaf disks under the same conditions, which show extensive disease development.

melting point [°C] | SMILES | inhibition at 20 ppm [1] [%] | pest or weed control at 200 ppm [2] [%] | pest or weed control at 200 ppm [3] [%] | pest or weed control at 200 ppm [4] [%]
108 to 114 | [O-][S+](c1ccc(-c2noc(C(F)(F)F)n2)cc1)C1CCCCC1 (centres unmarked) [Compound 2.3, 3-(4-cyclohexylsulfinylphenyl)-5-(trifluoromethyl)-1,2,4-oxadiazole] | ≥ 80 | ≥ 80 | ≥ 80 | ≥ 80
118 to 123 | [O-][S+](c1ccc(-c2noc(C(F)(F)F)n2)cc1)c1ccc(F)cc1F (centres unmarked) [Compound 2.5, 3-[4-(2,4-difluorophenyl)sulfinyl-phenyl]-5-(trifluoromethyl)-1,2,4-oxadiazole] | ≥ 80 | ≥ 80 | ≥ 80 | ≥ 80
128 to 132 | O=S(=O)(c1ccccc1)c1ccc(-c2noc(C(F)(F)F)n2)cc1 [Compound 3.1, 3-[4-(benzenesulfonyl)phenyl]-5-(trifluoromethyl)-1,2,4-oxadiazole] | ≥ 80 | ≥ 80 | ≥ 80 | ≥ 80
116 to 120 | [O-][S+](Cc1ccc(-c2noc(C(F)(F)F)n2)cn1)c1ccccc1 (centres unmarked) [Compound 2.28, 3-[6-(benzenesulfinylmethyl)-3-pyridyl]-5-(trifluoromethyl)-1,2,4-oxadiazole] | ≥ 80 | ≥ 80 | ≥ 80 | ≥ 80
97 to 106 | [O-][S+](c1ccccc1)c1ccc(-c2noc(C(F)(F)F)n2)cc1 (centres unmarked) [Compound 2.1, 3-[4-(benzenesulfinyl)phenyl]-5-(trifluoromethyl)-1,2,4-oxadiazole] | ≥ 80 | ≥ 80 | ≥ 80 | ≥ 80
93 to 100 | [O-][S+](CC(F)(F)F)c1ccc(-c2noc(C(F)(F)F)n2)cc1 (centres unmarked) [Compound 2.6, 3-[4-(2,2,2-trifluoroethylsulfinyl)phenyl]-5-(trifluoromethyl)-1,2,4-oxadiazole] | ≥ 80 | ≥ 80 | ≥ 80 | ≥ 80
55 to 60 | COc1ccc(Sc2ccc(-c3noc(C(F)(F)F)n3)cc2)cc1 [Compound 1.2, 3-[4-(4-methoxyphenyl)sulfanylphenyl]-5-(trifluoromethyl)-1,2,4-oxadiazole] | ≥ 80 | ≥ 80 | ≥ 80 | ≥ 80
52 to 58 | Fc1c(CSc2ccccc2)ccc(-c2noc(C(F)(F)F)n2)c1F [Compound 1.26, 3-[2,3-difluoro-4-(phenylsulfanylmethyl)phenyl]-5-(trifluoromethyl)-1,2,4-oxadiazole] | ≥ 80 | ≥ 80 | ≥ 80 | ≥ 80
93 to 98 | COc1ccc([S+]([O-])c2ccc(-c3noc(C(F)(F)F)n3)cc2)cc1 (centres unmarked) [Compound 2.2, 3-[4-(4-methoxyphenyl)sulfinylphenyl]-5-(trifluoromethyl)-1,2,4-oxadiazole] | ≥ 80 | ≥ 80 | ≥ 80 | ≥ 80
59 to 62 | FC(F)(F)c1nc(-c2ccc(Sc3ccccc3)cc2)no1 [Compound 1.1, 3-(4-phenylsulfanylphenyl)-5-(trifluoromethyl)-1,2,4-oxadiazole] | ≥ 80 | ≥ 80 | ≥ 80 | ≥ 80
81 to 85 | [O-][S+](CCc1ccccc1)c1ccc(-c2noc(C(F)(F)F)n2)cc1 (centres unmarked) [Compound 2.8, 3-[4-(2-phenylethylsulfinyl)phenyl]-5-(trifluoromethyl)-1,2,4-oxadiazole] | ≥ 80 | ≥ 80 | ≥ 80 | ≥ 80
85 to 92 | O=S(=O)(c1ccc(-c2noc(C(F)(F)F)n2)cc1)C1CCCC1 [Compound 3.16, 3-(4-cyclopentylsulfonylphenyl)-5-(trifluoromethyl)-1,2,4-oxadiazole] | ≥ 80 | ≥ 80 | ≥ 80 | ≥ 80
71 to 83 | Cc1cc(C)cc([S+]([O-])c2ccc(-c3noc(C(F)(F)F)n3)cc2)c1 (centres unmarked) [Compound 2.12, 3-[4-(3,5-dimethylphenyl)sulfinyl-phenyl]-5-(trifluoromethyl)-1,2,4-oxadiazole] | ≥ 80 | ≥ 80 | ≥ 80 | ≥ 80
